The record followed here is US8338587B2, “Compounds” (AstraZeneca AB, priority 2009, dated 2012).

In the assay the target is T1, recombinant human GR (Homo sapiens, UniProt P04150).
T1 construct: purchased Panvera/Invitrogen P2812 (kit P2893)
T1 sequence (P04150 1-777): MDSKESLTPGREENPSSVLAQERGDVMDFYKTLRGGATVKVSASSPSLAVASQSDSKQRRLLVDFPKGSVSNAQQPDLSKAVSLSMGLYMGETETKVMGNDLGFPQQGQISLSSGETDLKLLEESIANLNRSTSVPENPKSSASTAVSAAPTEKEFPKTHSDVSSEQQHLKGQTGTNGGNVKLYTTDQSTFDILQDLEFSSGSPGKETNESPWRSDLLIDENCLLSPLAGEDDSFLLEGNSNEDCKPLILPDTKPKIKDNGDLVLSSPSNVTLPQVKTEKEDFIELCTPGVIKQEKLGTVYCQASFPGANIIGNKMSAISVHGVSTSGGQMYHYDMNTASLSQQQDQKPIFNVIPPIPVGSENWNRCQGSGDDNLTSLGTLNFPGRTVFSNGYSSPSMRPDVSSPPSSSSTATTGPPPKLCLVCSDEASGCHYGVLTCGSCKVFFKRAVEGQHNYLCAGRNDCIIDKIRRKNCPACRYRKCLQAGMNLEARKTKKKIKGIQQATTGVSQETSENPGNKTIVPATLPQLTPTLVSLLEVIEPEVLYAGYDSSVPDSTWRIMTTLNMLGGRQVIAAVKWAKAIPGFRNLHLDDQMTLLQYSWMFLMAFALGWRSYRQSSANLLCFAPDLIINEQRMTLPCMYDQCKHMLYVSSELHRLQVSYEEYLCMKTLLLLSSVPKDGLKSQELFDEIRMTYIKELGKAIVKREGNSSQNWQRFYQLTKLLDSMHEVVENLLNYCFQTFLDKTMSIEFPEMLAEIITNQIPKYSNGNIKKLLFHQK
The assay is described as follows: Human Glucocorticoid Receptor (GR) Assay (fluorescence polarization competition, Panvera/Invitrogen kit). To be noted: GS Red Fluoromone tracer, 2 hours at room temperature, 100% control 10 μM Dexamethasone, read-out: Inhibition of GR binding, IC50. Here is the method:
Human Glucocorticoid Receptor (GR) Assay The assay is based on a commercial kit from Panvera/Invitrogen (Part number P2893). The assay technology is fluorescence polarization. The kit utilises recombinant human GR (Panvera, Part number P2812), a Fluoromone™ labelled tracer (GS Red, Panvera, Part number P2894) and a Stabilizing Peptide 10× (Panvera, Part number P2815). The GR and Stabilizing Peptide reagents are stored at −70° C. while the GS Red is stored at −20° C. Also included in the kit are 1M DTT (Panvera, Part number P2325, stored at −20° C.) and GR Screening buffer 10× (Panvera, Part number P2814, stored at −70° C. initially but once thawed stored at room temperature). Avoid repeated freeze/thaws for all reagents. The GR Screening buffer 10× comprises 100 mM potassium phosphate, 200 mM sodium molybdate, 1 mM EDTA and 20% DMSO. Test compounds (1 μL) and controls (1 μL) in 100% DMSO were added to black is polystyrene 384-well plates (Greiner low volume black flat-bottom, part number 784076). 0% control was 100% DMSO and 100% control was 10 μM Dexamethasone. Background solution (8 μL; assay buffer 10×, Stabilizing Peptide, DTT and ice cold MQ water) was added to the background wells. GS Red solution (7 μL; assay buffer 10×, Stabilizing Peptide, DTT, GS Red and ice cold water) was added to all wells except background wells. GR solution (7 μL; assay buffer 10×, Stabilizing Peptide, DTT, GR and ice cold water) was added to all wells. The plate was sealed and incubated in a dark at room temperature for 2 hours. The plate was read in an Analyst plate reader (LJL Biosystems/Molecular Devices Corporation) or other similar plate reader capable of recording fluorescence polarization (excitation wavelength 530 nm, emission wavelength 590 nm and a dichroic mirror at 561 nm).
For orientation: IC50 means the concentration that inhibits the measured activity by half. `COCC(=O)O[C@]1(C(=O)SCC#N)CC[C@H]2[C@@H]3C[C@H](C)C4=Cc5c(cnn5-c5ccc(F)nc5)C[C@]4(C)[C@H]3[C@@H](O)C[C@@]21C` [Example 24, (1R,3aS,3bS,5S,10aR,10bS,11S,12aS)-1-{[(Cyanomethyl)sulfanyl]carbonyl}-7-(6-fluoropyridin-3-yl)-11-hydroxy-5,10a,12a-trimethyl-1,2,3,3a,3b,4,5,7,10,10a,10b,11,12,12a-tetradecahydrocyclopenta[5,6]naphtho[1,2-f]indazol-1-yl methoxyacetate]: the IC50 was determined as 1.1 nM.

Turning to `C[C@H]1C[C@@H]2[C@H]([C@@H](O)C[C@@]3(C)[C@H]2CC[C@]3(OC(=O)C2CC2)C(=O)SCF)[C@@]2(C)Cc3cnn(-c4ccc(F)nc4)c3C=C12` [Example 25, (1R,3aS,3bS,5S,10aR,10bS,11S,12aS)-1-{[(Fluoromethyl)sulfanyl]carbonyl}-7-(6-fluoropyridin-3-yl)-11-hydroxy-5,10a,12a-trimethyl-1,2,3,3a,3b,4,5,7,10,10a,10b,11,12,12a-tetradecahydrocyclopenta[5,6]naphtho[1,2-f]indazol-1-yl cyclopropanecarboxylate], the IC50 was 1.2 nM. As for `CCC(=O)O[C@]1(C(=O)SCC#N)[C@H](C)C[C@H]2[C@@H]3CCC4=Cc5c(cnn5-c5ccc(F)cc5)C[C@]4(C)[C@@]3(F)[C@@H](O)C[C@@]21C` [Example 26, (1R,2R,3aS,3bS,10aS,10bR,11S,12aS)-10b-Fluoro-1-{[(cyanomethyl)sulfanyl]carbonyl}-7-(4-fluorophenyl)-11-hydroxy-2,10a,12a-trimethyl-1,2,3,3a,3b,4,5,7,10,10a,10b,11,12,12a-tetradecahydrocyclopenta[5,6]naphtho[1,2-f]indazol-1-yl propanoate], the IC50 was found to be 17 nM. Take `COCC(=O)O[C@]1(C(=O)SCC#N)[C@H](C)C[C@H]2[C@@H]3CCC4=Cc5c(cnn5-c5ccc(F)cc5)C[C@]4(C)[C@@]3(F)[C@@H](O)C[C@@]21C` [Example 27, (1R,2R,3aS,3bS,10aS,10bR,11S,12aS)-10b-Fluoro-1-{[(cyanomethyl)sulfanyl]carbonyl}-7-(4-fluorophenyl)-11-hydroxy-2,10a,12a-trimethyl-1,2,3,3a,3b,4,5,7,10,10a,10b,11,12,12a-tetradecahydrocyclopenta[5,6]naphtho[1,2-f]indazol-1-yl methoxyacetate]: the IC50 is 6 nM.

In the case of `C[C@@H]1C[C@H]2[C@@H]3CCC4=Cc5c(cnn5-c5ccc(F)cc5)C[C@]4(C)[C@@]3(F)[C@@H](O)C[C@]2(C)[C@@]1(OC(=O)c1cocn1)C(=O)SCF` [Example 28, (1R,2R,3aS,3bS,10aS,10bR,11S,12aS)-10b-Fluoro-1-{[(fluoromethyl)sulfanyl]carbonyl}-7-(4-fluorophenyl)-11-hydroxy-2,10a,12a-trimethyl-1,2,3,3a,3b,4,5,7,10,10a,10b,11,12,12a-tetradecahydrocyclopenta[5,6]naphtho[1,2-f]indazol-1-yl 1,3-oxazole-4-carboxylate], the IC50 came out at 15 nM. With `C[C@@H]1C[C@H]2[C@@H]3CCC4=Cc5c(cnn5-c5ccc(F)cc5)C[C@]4(C)[C@@]3(F)[C@@H](O)C[C@]2(C)[C@@]1(OC(=O)c1cocn1)C(=O)SCC#N` [Example 29, (1R,2R,3aS,3bS,10aS,10bR,11S,12aS)-10b-Fluoro-1-{[(cyanomethyl)sulfanyl]carbonyl}-7-(4-fluorophenyl)-11-hydroxy-2,10a,12a-trimethyl-1,2,3,3a,3b,4,5,7,10,10a,10b,11,12,12a-tetradecahydrocyclopenta[5,6]naphtho[1,2-f]indazol-1-yl 1,3-oxazole-4-carboxylate] the figure was 5.5 nM; with `COCC(=O)O[C@]1(C(=O)SCC#N)[C@H](C)C[C@H]2[C@@H]3CCC4=Cc5c(cnn5-c5ccc(F)nc5)C[C@]4(C)[C@@]3(F)[C@@H](O)C[C@@]21C` [Example 30, (1R,2R,3aS,3bS,10aS,10bR,11S,12aS)-10b-Fluoro-1-{[(cyanomethyl)sulfanyl]carbonyl}-7-(6-fluoropyridin-3-yl)-11-hydroxy-2,10a,12a-trimethyl-1,2,3,3a,3b,4,5,7,10,10a,10b,11,12,12a-tetradecahydrocyclopenta[5,6]naphtho[1,2-f]indazol-1-yl methoxyacetate], 1.6 nM.
